From the NIST ThermoML archive (doi:10.1016/j.jct.2012.03.020)
Numbers after ± are expanded uncertainties.

Assays:
[1] = for mass density: 101.33 kPa, Liquid, Pycnometric method; for Normal melting temperature: Crystal, visual observation
[2] = refractive index (Na D-line) (dimensionless); conditions: 101.33 kPa, Liquid, Standard Abbe refractometry

Row | SMILES | mass density ([1]; 298.15 K) | mass density ([1]; 303.15 K) | mass density ([1]; 308.15 K) | mass density ([1]; 313.15 K) | Normal melting temperature [1] | refractive index ([2]; 298.15 K) | refractive index ([2]; 303.15 K) | refractive index ([2]; 308.15 K) | refractive index ([2]; 313.15 K)
1 | Cc1ccc(C(=O)N(O)c2ccccc2)cc1[N+](=O)[O-] [N-hydroxy-4-methyl-3-nitro-N-phenylbenzamide] | 1437 ± 0.9 kg/m3 | 1433.5 ± 0.9 kg/m3 | 1430.2 ± 0.9 kg/m3 | 1428.5 ± 0.9 kg/m3 | 117.00 ± 2 °C | 1.4371 ± 0.0004 | 1.4336 ± 0.0004 | 1.4302 ± 0.0004 | 1.4286 ± 0.0004
2 | O=C(c1ccc([N+](=O)[O-])cc1)N(O)c1ccccc1 [N-hydroxy-4-nitro-N-phenylbenzamide] | – | – | – | – | 168.00 ± 2 °C | – | – | – | –
3 | O=C(c1ccccc1)N(O)c1ccccc1 [N-phenylbenzohydroxamic acid] | 945.8 ± 0.6 kg/m3 | 940.4 ± 0.6 kg/m3 | 936.3 ± 0.6 kg/m3 | 931.2 ± 0.6 kg/m3 | 121.00 ± 2 °C | 1.4269 ± 0.0004 | 1.4257 ± 0.0004 | 1.4241 ± 0.0004 | 1.4221 ± 0.0004
4 | CN(C)C=O [dimethylformamide] | 945.2 ± 0.9 kg/m3 | 939.7 ± 0.8 kg/m3 | 935.6 ± 0.8 kg/m3 | 930.2 ± 0.9 kg/m3 | – | 1.427 ± 0.0004 | 1.4253 ± 0.0004 | 1.423 ± 0.0004 | 1.421 ± 0.0004
